# Reference: patent US20040102454A1, “Phenylahistin and the phenylahistin analogs, a new class of anti-tumor compounds” (priority 1998, published 2004)
# Counter-ions that a name gives are not always drawn. Like-named read-outs stand apart in the source and are kept apart here.
# Experiments:
# HT-29 human colon tumor = assay: HT-29 Human Colon Tumor Xenograft Model; assay type: in vivo, nude mice; conditions: CPT-11 100 ip qwx3 alone; study 2139
# Description: Animals used were (exceptions are indicated for individual studies): female nude mice (nu/nu) between 5 and 6 weeks of age (˜20 g, Harlan); group size was 9-10 mice per group unless otherwise indicated. The selected novel compound was administered as monotherapy via the intraperitoneal (i.p.) route at the doses indicated for the individual study; for the combination studies the selected reference chemotherapy agents were injected 15-30 min prior to the compound. Vehicles used in these studies were: 12.5% DMSO, 5% Cremaphor and 82.5% peanut oil for the selected novel compounds; (1:3) Polysorbate 80:13% ethanol for taxotere; […] Saline dilutions are used to achieve the injection concentrations used for the reference compounds. Animals were implanted subcutaneously (s.c.) by trocar with fragments of HT-29 tumors harvested from s.c. growing tumors in nude mice hosts. […] CPT-11 was administered intraperitoneally on days 1, 8 and 15 (qw×3).
# [1] = system: Microtubule protein from bovine brain; assay: Microtubule protein polymerization assay (turbidity); assay type: biochemical
# Description: Microtubule protein was prepared from bovine brain tissue by two cycles of assembly and disassembly according to the method of Tiwari, S. C. et al. Anal. Biochem, (1993), 215, 96-103. Tubulin was purified from microtubule protein by phosphocellulose chromatography see Algaier, J. et al. Biochim. Biophys. Acta, (1988), 954, 235-43, and tubulin purity was evaluated by polyacrylamide gel electrophoresis, as in Laemmli, U.K., Nature, (1970), […], 680-85. […] Protein concentrations were determined using the Coomassie® Protein Assay Reagent from Pierce (Rockford, Ill.).
# Polymerization of microtubule protein was monitored by an increase in turbidity at 37° C. in microtubule assembly buffer containing 100 mM MES, 0.5 mM MgCl2, 1 mM EGTA and 1 mM GTP. See Johnson, K. A. et al., J. Mol. Biol., (1977), 117, 1-31. Polymerization of purified tubulin was measured using the same method except the microtubule assembly buffer contained 4 M glycerol. See Lee, J. C. et al., Biochemistry, (1975), 14, 5183-87. Microtubule protein and tubulin polymerization was initiated by a temperature shift from 0° C. to 37° C. and turbidity was measured on a DU-20 thermocontrolled spectrophotometer from Beckman (Fullerton, Calif.) at 360 nm. Drugs were dissolved in dimethyl sulfoxide (DMSO), which was used in all experiments at a final concentration of 2% (v/v).
# For this example, the microtubule protein polymerization assay was performed as follows. Microtubule protein was prepared from bovine brain tissue by two cycles of assembly and disassembly. Polymerization of microtubule protein was monitored by an increase in turbidity at 37° C. in microtubule assembly buffer containing 100 mM MES, 0.5 mM MgCl2, 1 mM EGTA and 1 mM GTP. The polymerization of microtubule protein was initiated by a temperature shift from 0° C. to 37° C. Turbidity was measured on a thermo-controlled spectrophotometer (Beckman DU-20, Fullerton, Calif.) at 360 nm. Compounds were dissolved in DMSO, which was used in all experiments at a final concentration of 2% (v/v).
# P388 cells = assay: P388 proliferation, Alamar Blue assay; assay type: cell-based, murine
# Description: For this example, the Alamar Blue™ assay was performed as follows. Exponentially growing P388 cells were seeded into 96-well tissue culture plates (5×10^3 cells/100 μl/well) and cultured in RPMI 1640 medium supplemented with 10% fetal bovine serum for 16 h. Compounds (DMSO solution) were then added to each well at various concentrations, and the cells were cultured for an additional 48 h. Living cells were counted using Alamar Blue™ (BioSource International, Camarillo, Calif.), according to the method of Ahmed, S. A. et al., J. Immunol. Methods, 170, 211 (1994).
# T. rubrum isolate #2 = assay: Antifungal susceptibility testing, broth dilution (NCCLS M38-A); assay type: cell-based, Trichophyton rubrum
# Description: (§1) Antifungal susceptibility testing was accomplished according to the methods outlined in the National Committee for Clinical Laboratory Standards, M38-A “Reference Method for Broth Dilution Antifungal Susceptibility Testing of Conidium-Forming Filamentous Fungi; Approved Standard.” This includes testing in RPMI-1640 with glutamine and without bicarbonate, an inoculum size of 0.4-5×10^4, and incubation at 30 or 35° C. for 48 hours. […] Drug concentrations were 0.03-16 μg/ml for the investigational compounds, 0.015-8 μg/ml for itraconazole and griseofulvin.
# (§2) The minimum lethal concentration (MLC) was determined by plating […] from the MIC concentration and each concentration above the MIC. […] When a MIC was obtained, a minimum fungicidal concentration (MFC) was determined to assess the fungistatic/fungicidal nature of the compound. […] The compound is scored as fungistatic if the cells are able to resume growth and fungicidal if no regrowth is possible because the compound had killed the organisms.
# T. rubrum isolate #1 = assay: as above; assay type: cell-based, Trichophyton rubrum; conditions: T. rubrum isolate #1; 80% reduction in turbidity
# Description: as §1, §2
# [2] = system: T. mentagrophytes isolate #2; assay: as above; assay type: cell-based, Trichophyton mentagrophytes; conditions: 80% reduction in turbidity
# Description: as §1, §2
# [3] = system: T. mentagrophytes isolate #1; assay: as above; assay type: cell-based, Trichophyton mentagrophytes
# Description: as §1, §2
# E. floccosum isolate #1 = assay: as above; assay type: cell-based, Epidermophyton floccosum; conditions: 80% reduction in turbidity
# Description: as §1, §2
# E. floccosum isolate #2 = assay: as above; assay type: cell-based, Epidermophyton floccosum
# Description: as §1, §2
# C. glabrata = assay: as above; assay type: cell-based, Candida glabrata
# Description: as §1, §2
# C. albicans 90028 = assay: as above; assay type: cell-based, Candida albicans
# Description: as §1, §2
# C. albicans 10231 = assay: as above; assay type: cell-based, Candida albicans
# Description: as §1, §2
# [4] = system: microtubules in A549 cells; assay: Immunofluorescence staining of microtubules; assay type: cell-based, human; conditions: 6 hours incubation
# Description: Immunocytochemical staining was performed using the method described by Yahara, I. et al., Cell (1978) 15, 251-259. A549 cells were cultured on glass coverslips and incubated with the test drug for 6 hours. The cells were then fixed with 3.7% formaldehyde for 30 min, permeabilized with 0.2% Triton X-100 for 5 min, and incubated with a mouse monoclonal antibody against α-tubulin (Calbiochem®, Oncogene Research Products, Cambridge, Mass.), followed by incubation with fluorescein isothiocyanate-conjugated goat anti-mouse IgG from Cosmo Bio Co., (Tokyo, Japan), and the cells were examined under an immunofluorescent microscope.
# [5] = system: MES-SA DX (Taxol Resistant) human uterine sarcoma tumor cell line; assay: Drug resistant cell line pair, cytotoxicity; assay type: cell-based
# Text: MES-SA (Taxol Sensitive) and MES-SA DX (Taxol Resistant). This cell line expresses elevated mdr-1 mRNA and P-glycoprotein (an extrusion pump mechanism). Pretreatment with cyclosporin-A (CsA) blocks P-glycoprotein and reinstates activity in the resistant cell line for those compounds for which the resistance is due to elevated P-glycoprotein.
# [6] = microtubule protein 1.5 mg/mL (Table 9), read-out: IC50 Microtubule Protein polymerization
# [7] = Mus musculus, P388, means (±SEM) of three experiments (Table 9), read-out: IC50 P388 proliferation
# [8] = microtubule protein 1.5 mg/ml (Table 4), read-out: IC50 for Microtubule Protein Polymerization
# [9] = Alamar Blue assay (Table 4), read-out: IC50 for P388 Proliferation
# [10] = means (±SEM) of three experiments (Table 9), read-out: IC50 P388 proliferation
compound,measurement,setting,value
"CCc1c2c(nc3ccc(OC(=O)N4CCC(N5CCCCC5)CC4)cc13)-c1cc3c(c(=O)n1C2)COC(=O)[C@]3(O)CC [CPT-11, irinotecan hydrochloride, reference compound]",Chemotherapeutic Agent Result TGI %,HT-29 human colon tumor,32.7%
"O=C1NC(Cc2ccccc2)C(=O)NC1=Cc1c[nH]cn1 [Compound 19, Cyclo-[dehydrohistidinyl-L-phenylalanine]]","inhibition percentage at 200 μM, microtubule protein polymerization",[1],11%
same,IC50,[1]; [6],> 200 µM
same,IC50,P388 cells; [7],> 200 µM
"(+)-Cyclo-[5-(1,1-dimethylpropyl)dehydrohistidinyl-L-phenylalanine] [Compound 4]","inhibition percentage at 200 μM, microtubule protein polymerization",[1],12%
same,IC50,[1]; [6],> 200 µM
same,IC50,[1]; [8],> 200 µM
same,IC50,P388 cells; [9],19 µM
same,IC50,P388 cells; [10],19 µM
"C=CC(C)(C)c1c(C=C2C(=O)N(C)[C@@H](Cc3ccccc3)C(=O)N2C)ncn1C [Compound 15, (−)-Cyclo-N, N′-dimethyl-[(N^im-methyl-5-(1,1-dimethyl-2-propenyl))dehydro-histidinyl-L-phenylalanine]]",IC50,[1]; [6],> 200 µM
same,IC50,P388 cells; [10],160 µM
C=CC(C)(C)c1[nH]cnc1/C=C1\NC(=O)[C@H](Cc2ccccc2)NC1=O [NPI2350],MFC,T. rubrum isolate #2,>16 µg/mL
same,MIC,T. rubrum isolate #2; 80% reduction in turbidity,0.16 µg/mL
same,MIC,T. rubrum isolate #1,>16 µg/mL
same,MIC,[2],>16 µg/mL
same,MFC,[3],>16 µg/mL
same,MIC,[3]; 80% reduction in turbidity,16 µg/mL
same,MIC,E. floccosum isolate #1,>16 µg/mL
same,MICs and MFCs,E. floccosum isolate #2,>16 µg/mL
"(+)-Cyclo-[5-(1,1-dimethylpropyl)histidinyl-L-phenylalanine] [Compound 6]",IC50,[1]; [6],> 200 µM
same,IC50,[1]; [8],> 200 µM
same,IC50,P388 cells; [9],> 200 µM
same,IC50,P388 cells; [10],> 200 µM
CCCCNC(=O)n1c(NC(=O)OC)nc2ccccc21 [benomyl],MIC,"C. glabrata; Nakaseomyces glabratus, C. glabrata, 80% reduction in turbidity, read-out: MIC",64 µg/mL
same,MFC,"C. glabrata; Nakaseomyces glabratus, C. glabrata, read-out: MFC",> 512 µg/mL
same,MIC,"C. albicans 90028; Candida albicans, C. albicans 90028, 80% reduction in turbidity, read-out: MIC",64 µg/mL
same,MFC,"C. albicans 90028; Candida albicans, C. albicans 90028, read-out: MFC",> 512 µg/mL
same,MIC,"C. albicans 10231; Candida albicans, C. albicans 10231, 80% reduction in turbidity, read-out: MIC",64 µg/mL
same,MFC,"C. albicans 10231; Candida albicans, C. albicans 10231, read-out: MFC",> 512 µg/mL
"(−)-Cyclo-[5-(1,1-dimethylpropyl)histidinyl-L-phenylalanine] [Compound 5]",IC50,[1]; [6],> 200 µM
same,IC50,[1]; [8],> 200 µM
same,IC50,P388 cells; [9],> 200 µM
same,IC50,P388 cells; [10],> 200 µM
COc1cc2c(c(OC)c1OC)-c1ccc(OC)c(=O)cc1[C@@H](NC(C)=O)CC2 [colchicine],MIC,C. glabrata; Nakaseomyces glabratus,> 128 µg/mL
same,microtubule structure (anti α-tubulin staining),[4],staining profile similar to that of (−)-PLH-treated cells
same,MIC,"C. albicans 90028; Candida albicans, 90028",> 128 µg/mL
same,MIC,"C. albicans 10231; Candida albicans, 10231",> 128 µg/mL
"O=C1N[C@@H](Cc2cnc[nH]2)C(=O)N[C@H]1Cc1ccccc1 [Cyclo-His-Phe, reference compound]",IC50,[1]; [6],> 200 µM
same,IC50,[1]; [8],> 200 µM
same,IC50,P388 cells; [9],> 200 µM
same,IC50,P388 cells; [10],> 200 µM
"C=CC(C)(C)c1c(/C=C2\NC(=O)[C@H](Cc3ccccc3)NC2=O)ncn1C [Compound 14, (−)-Cyclo-[(N^im-methyl-5-(1,-dimethyl-2-propenyl))dehydrohistidinyl-L-phenylalanine]]",times less active than (−)-phenylahistin,[1],about 5 times
same,IC50,[1]; [6],100 µM
same,IC50,P388 cells; [7],0.95 µM
"COc1cc([C@@H]2c3cc4c(cc3[C@@H](O[C@@H]3O[C@@H]5CO[C@@H](C)O[C@H]5[C@H](O)[C@H]3O)[C@H]3COC(=O)[C@H]23)OCO4)cc(OC)c1O [etoposide, reference compound]",reduced susceptibility of the MES-SA DX cell line,[5],60 fold
"O=C1CNC(=O)C(Cc2ccccc2)N1 [Compound 7, Cyclo-[glycinyl-L-phenylalanine]]",IC50,[1]; [8],> 200 µM
same,IC50,"P388 cells; Mus musculus, P388, Alamar Blue assay (Table 4), read-out: IC50 for P388 Proliferation",> 200 µM
"COc1cccc2c1C(=O)c1c(O)c3c(c(O)c1C2=O)C[C@@](O)(C(=O)CO)C[C@@H]3O[C@H]1C[C@H](N)[C@H](O)[C@H](C)O1 [doxorubicin, reference compound]",reduced susceptibility of the MES-SA DX cell line,[5],34 fold
"Cc1[nH]cnc1C=C1NC(=O)[C@H](Cc2ccccc2)NC1=O [Compound 20, Cyclo-[(5-methyl)dehydrohistidinyl-L-phenylalanine]]","inhibition percentage at 200 μM, microtubule protein polymerization",[1],9%
same,IC50,[1]; [6],> 200 µM
same,IC50,P388 cells; [10],15 µM
"(−)-Cyclo-[5-(1,1-dimethylpropyl)dehydrohistidinyl-L-phenylalanine] [Compound 3]",IC50,[1]; [6],30 µM
same,IC50,[1]; [8],30 µM
same,IC50,P388 cells; [9],0.23 µM
same,IC50,P388 cells; [10],0.23 µM
C[C@@H]1[C@H](O)[C@@H](C)/C=C/C=C/C=C/C=C/C=C/C=C/C=C/[C@H](O[C@@H]2O[C@H](C)[C@@H](O)[C@H](N)[C@@H]2O)C[C@@H]2O[C@](O)(C[C@@H](O)C[C@@H](O)[C@H](O)CC[C@@H](O)C[C@@H](O)CC(=O)O[C@H]1C)C[C@H](O)[C@H]2C(=O)O [amphotericin B],MFC,C. glabrata; C. glabrata,1 µg/mL
same,MIC,"C. glabrata; C. glabrata, 80% reduction in turbidity",1 µg/mL
same,MFC,C. albicans 90028; C. albicans 90028,0.5 µg/mL
same,MIC,"C. albicans 90028; C. albicans 90028, 80% reduction in turbidity",0.5 µg/mL
same,MFC,C. albicans 10231; C. albicans 10231,0.5 µg/mL
same,MIC,"C. albicans 10231; C. albicans 10231, 80% reduction in turbidity",0.5 µg/mL
